According to ChEMBL document CHEMBL1146569, “The pterocellins, novel bioactive alkaloids from the marine bryozoan Pterocella vesiculosa” (J Nat Prod, 2003):

How the values were obtained:
Assay type in all cases: functional
[1] = test system: HCC 2998; assay: Growth inhibition of human HCC2998 cells
[2] = test system: M14; assay: Growth inhibition of human M14 cells
[3] = test system: SNB-19; assay: Growth inhibition of human SNB19 cells
[4] = test system: SK-MEL-5; assay: Growth inhibition of human SK-MEL-5 cells
[5] = test system: EKVX; assay: Growth inhibition of human EKVX cells
[6] = test system: NCI-H460; assay: Growth inhibition of human NCI-H460 cells
[7] = test system: Candida albicans; assay: Antimicrobial activity against Candida albicans assessed per disk
[8] = test system: TK-10; assay: Growth inhibition of human TK10 cells
[9] = test system: LOX IMVI; assay: Growth inhibition of human LOXIMVI cells
[10] = test system: UACC-257; assay: Growth inhibition of human UACC257 cells
[11] = test system: CAKI-1; assay: Growth inhibition of human Caki1 cells
[12] = test system: SF-268; assay: Growth inhibition of human SF268 cells
[13] = test system: MCF7; assay: Growth inhibition of human MCF7 cells
[14] = test system: RXF 393; assay: Growth inhibition of human RXF393 cells
[15] = test system: SF-539; assay: Growth inhibition of human SF539 cells
[16] = test system: ACHN; assay: Growth inhibition of human ACHN cells
[17] = test system: CCRF-CEM; assay: Growth inhibition of human CCRF-CEM cells
[18] = test system: OVCAR-4; assay: Growth inhibition of human OVCAR4 cells
[19] = test system: IGROV-1; assay: Growth inhibition of human IGROV1 cells
[20] = test system: Amorphotheca resinae; assay: Antimicrobial activity against Cladosporium resinae assessed per disk
[21] = Growth inhibition of human […] cells
[22] = test system: SW-620; assay: Growth inhibition of human SW620 cells
[23] = test system: A549; assay: Growth inhibition of human A549 cells
[24] = test system: UACC-62; assay: Growth inhibition of human UACC62 cells
[25] = test system: MDA-MB-231; assay: Growth inhibition of human MDA-MB-231 cells
[26] = test system: COLO 205; assay: Growth inhibition of human COLO205 cells
[27] = test system: SF-295; assay: Growth inhibition of human SF295 cells
[28] = test system: SNB-75; assay: Growth inhibition of human SNB75 cells
[29] = test system: K562; assay: Growth inhibition of human K562 cells
[30] = test system: SK-MEL-2; assay: Growth inhibition of human SK-MEL-2 cells
[31] = test system: DU-145; assay: Growth inhibition of human DU145 cells
[32] = test system: PC-3; assay: Growth inhibition of human PC3 cells
[33] = test system: Pseudomonas aeruginosa; assay: Antimicrobial activity against Pseudomonas aeruginosa assessed per disk
[34] = test system: HCT-15; assay: Growth inhibition of human HCT15 cells
[35] = test system: HCT-116; assay: Growth inhibition of human HCT116 cells
[36] = test system: OVCAR-5; assay: Growth inhibition of human OVCAR5 cells
[37] = test system: MOLT-4; assay: Growth inhibition of human MOLT4 cells
[38] = test system: 786-0; assay: Growth inhibition of human 786-0 cells
[39] = test system: SK-OV-3; assay: Growth inhibition of human SKOV3 cells
[40] = test system: HOP-62; assay: Growth inhibition of human HOP62 cells
[41] = test system: SN12C; assay: Growth inhibition of human SN12C cells
[42] = test system: HOP-92; assay: Growth inhibition of human HOP92 cells
[43] = test system: NCI/ADR-RES; assay: Growth inhibition of human NCI/ADR-RES cells
[44] = test system: NCI-H226; assay: Growth inhibition of human NCI-H226 cells
[45] = test system: SK-MEL-28; assay: Growth inhibition of human SK-MEL-28 cells
[46] = read-out: LC50 (the source's name)

COc1cn2c(cc1=O)C(=O)c1ccnc(CC(C)C)c1-2 [PTEROCELLIN A]
GI50 [1]: 1.6 µM | LC50 (concentration killing 50% of cells) [1]: 6 µM | TGI [1]: 3.1 µM | GI50 [2]: 0.2 µM | LC50 (concentration killing 50% of cells) [2]: 4.6 µM | TGI [2]: 0.8 µM | GI50 [3]: 2.9 µM | TGI [3]: 11.4 µM | CC50 [3, 46]: 60 µM | GI50 [4]: 0.2 µM | TGI [4]: 0.3 µM | CC50 [4, 46]: 0.6 µM | GI50 [5]: 2.1 µM | TGI [5]: 5.8 µM | CC50 [5, 46]: 23.6 µM | GI50 [6]: 0.8 µM | LC50 (concentration causing 50% cell kill) [6]: 7.1 µM | TGI [6]: 2.6 µM | MIC [7]: >60 µg | GI50 [8]: 3.1 µM | TGI [8]: 6.8 µM | CC50 [8, 46]: 23.1 µM | GI50 [9]: 1.3 µM | LC50 [9]: > 100 µM | TGI [9]: 7.4 µM | GI50 [10]: 1.1 µM | TGI [10]: 3 µM | CC50 [10, 46]: 7.9 µM | GI50 [11]: 2.1 µM | TGI [11]: 4.6 µM | CC50 [11, 46]: 11.1 µM | GI50 [12]: 2.1 µM | LC50 (concentration killing 50% of cells) [12]: 26.7 µM | TGI [12]: 6.7 µM | GI50 [13]: 1.5 µM | TGI [13]: 4.9 µM | CC50 [13, 46]: > 100 µM | GI50 [14]: 3.2 µM | LC50 [14]: 46.6 µM | TGI [14]: 12.3 µM | GI50 [15]: 1.8 µM | TGI [15]: 3.6 µM | CC50 [15, 46]: 7.1 µM | GI50 [16]: 2.3 µM | TGI [16]: 9.1 µM | CC50 [16, 46]: > 100 µM | GI50 [17]: 0.05 µM | TGI [17]: 0.8 µM | CC50 [17, 46]: > 100 µM | GI50 [18]: 1.7 µM | LC50 [18]: 7.6 µM | TGI [18]: 3.6 µM | GI50 [19]: 2.1 µM | TGI [19]: 5.4 µM | CC50 [19, 46]: 18.4 µM | MIC [20]: >60 µg | GI50 [21]: 1.7 µM | TGI [21]: 4.2 µM | CC50 [21, 46]: > 100 µM | GI50 [22]: 1.5 µM | LC50 (concentration killing 50% of cells) [22]: 6.2 µM | TGI [22]: 3.1 µM | GI50 [23]: 1.3 µM | LC50 (50% cell kill concentration) [23]: > 100 µM | TGI [23]: 5.1 µM | GI50 [24]: 1.4 µM | LC50 (50% cell kill) [24]: 6 µM | TGI [24]: 2.9 µM | GI50 [25]: 2.6 µM | TGI [25]: 14.1 µM | CC50 [25, 46]: 51.7 µM | GI50 [26]: 1.6 µM | TGI [26]: 3.7 µM | CC50 [26, 46]: 8.4 µM | GI50 [27]: 1.3 µM | LC50 (concentration killing 50% of starting cells) [27]: 5.2 µM | TGI [27]: 2.6 µM | GI50 [28]: 1.4 µM | TGI [28]: 3.9 µM | CC50 [28, 46]: 56.8 µM | GI50 [29]: 3 µM | LC50 (concentration killing 50% of cells) [29]: > 100 µM | TGI [29]: > 100 µM | GI50 [30]: 1.9 µM | TGI [30]: 3.4 µM | CC50 [30, 46]: 6.3 µM | GI50 [31]: 0.7 µM | TGI [31]: 2 µM | CC50 [31, 46]: 4.7 µM | GI50 [32]: 2.9 µM | LC50 (concentration killing 50% of cells) [32]: 45.1 µM | TGI [32]: 8.4 µM | MIC [33]: >60 µg | GI50 [34]: 1.6 µM | TGI [34]: 4.2 µM | CC50 [34, 46]: 17.3 µM | GI50 [35]: 1.1 µM | LC50 [35]: 11.2 µM | TGI [35]: 2.5 µM | GI50 [36]: 2 µM | TGI [36]: 3.4 µM | CC50 [36, 46]: 5.6 µM | GI50 [37]: 3.5 µM | LC50 (concentration killing 50% of cells) [37]: > 100 µM | TGI [37]: > 100 µM | GI50 [38]: 1.3 µM | LC50 (concentration killing 50% of cells) [38]: 24.4 µM | TGI [38]: 4.7 µM | GI50 [39]: 6.1 µM | TGI [39]: 21.9 µM | CC50 [39, 46]: 59.2 µM | GI50 [40]: 1.7 µM | TGI [40]: 3.1 µM | CC50 [40, 46]: 5.6 µM | GI50 [41]: 1.7 µM | LC50 [41]: 6.5 µM | TGI [41]: 3.3 µM | GI50 [42]: 2.2 µM | TGI [42]: 4.9 µM | CC50 [42, 46]: 14.1 µM | GI50 [43]: 2.1 µM | TGI [43]: 4.9 µM | CC50 [43, 46]: > 100 µM | GI50 [44]: 1.7 µM | TGI [44]: 3.5 µM | CC50 [44, 46]: 7.4 µM | GI50 [45]: 1.9 µM | TGI [45]: 4.2 µM | CC50 [45, 46]: 9.3 µM
